The record followed here is US8227511B2, “Substituted chromanol derivatives and their use” (Bayer Intellectual Property GmbH, priority 2006, dated 2012).

Assay [1] has as its target T1, CETP (Homo sapiens, UniProt P11597).
T1 construct: CETP is obtained in partially purified form from human plasma by differential centrifugation and column chromatography and used for the test; from tissue; host or cells: human plasma
T1 sequence (P11597 18-493): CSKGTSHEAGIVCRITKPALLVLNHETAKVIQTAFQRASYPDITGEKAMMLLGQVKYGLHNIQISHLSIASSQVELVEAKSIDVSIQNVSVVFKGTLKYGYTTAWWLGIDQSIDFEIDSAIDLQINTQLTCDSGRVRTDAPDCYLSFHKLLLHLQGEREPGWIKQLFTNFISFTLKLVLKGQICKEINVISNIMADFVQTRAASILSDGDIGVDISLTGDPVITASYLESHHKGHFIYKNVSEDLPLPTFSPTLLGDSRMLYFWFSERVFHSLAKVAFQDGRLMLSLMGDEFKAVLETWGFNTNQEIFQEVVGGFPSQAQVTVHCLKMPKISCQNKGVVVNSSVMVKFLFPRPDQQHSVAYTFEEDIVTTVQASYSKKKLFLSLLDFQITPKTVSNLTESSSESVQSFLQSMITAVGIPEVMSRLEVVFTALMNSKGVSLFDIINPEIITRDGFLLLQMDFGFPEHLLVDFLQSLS
Put plainly: CETP fluorescence test with enriched CETP. Type of assay: biochemical. The conditions noted are these: enriched CETP fraction from human plasma; transfer of fluorescent cholesterol ester between liposomes; 37° C. for 4 h. How it is done:
(§1) CETP is obtained in partially purified form from human plasma by differential centrifugation and column chromatography and used for the test. To this end, human plasma is adjusted to a density of 1.21 g per ml using NaBr and centrifuged at 4° C. at 50 000 rpm for 18 h. The bottom fraction (d>1.21 g/ml) is applied to a Phenyl-Sepharose 26/10 HP fast flow-column (Pharmacia), washed with PBS buffer and then eluted with distilled water. 10 parts of PBS buffer and 1% (w/v) BSA are added to the eluate. The CETP-active fractions are pooled.
Measurement of the CETP-catalyzed transfer of a fluorescent cholesterol ester between liposomes [modified according to the procedure of Bisgaier et al., J. Lipid Res. 34, 1625 (1993)]:
For the production of the donor liposomes, 1 mg of cholesteryl 4,4-difluoro-5,7-dimethyl-4-bora-3a,4a-diaza-s-indacene-3-dodecanoate (cholesteryl BODIPY® FL C12, Molecular Probes) is dissolved in 2 ml of chloroform with 5.35 mg of triolein and 6.67 mg of phosphatidylcholine. The solvent is removed at medium temperature in a SpeedVac and the residue is dried under high vacuum for 1 h. The residue is then dissolved in 600 μl of dioxane with gentle warming in an ultrasonic bath and this solution is added very slowly with ultrasonication to 63 ml of 50 mM Tris/HCl, 150 mM NaCl, 2 mM EDTA buffer pH 7.3 at room temperature. The suspension is then ultrasonicated under an N2 atmosphere for 30 minutes in the Branson ultrasonic bath at about 50 watts, the temperature being kept at about 20° C.
The acceptor liposomes are obtained analogously from 86 mg of cholesteryl oleate, 20 mg of triolein and 100 mg of phosphatidylcholine dissolved in 1.2 ml of dioxane and 114 ml of the above buffer by ultrasonication at 50 watts (20° C.) for 30 minutes.
For testing, a test mix consisting of 1 part of above buffer, 1 part of donor liposomes and 2 parts of acceptor liposomes is used.
50 μl of test mix are treated with 48 μl of enriched CETP fraction (1-3 μg), obtained from human plasma by means of hydrophobic chromatography, and 2 μl of a solution of the substance to be investigated in DMSO and incubated at 37° C. for 4 h.
The change in the fluorescence at 485/535 nm is a measure of the CE transfer; the inhibition of the transfer in comparison to the control batch without substance is determined.

The target of assay [2] is T1, CETP. The assay can be described thus: CETP-SPA test. Type of assay: biochemical. The conditions noted are these: transfer of 3H-cholesterol ester from human HDL to biotinylated LDL; 37° C. for 18 h. How it is done:
as §1
For testing of the CETP activity, the transfer of ^3H-cholesterol ester from human HD lipoproteins to biotinylated LD lipoproteins is measured. The reaction is ended by addition of streptavidin-SPA® beads (Amersham) and the transferred radioactivity is determined directly in a liquid scintillation counter.
In the test batch, 10 μl of HDL-3H-cholesterol ester (about 50 000 cpm) are incubated at 37° C. for 18 h with 10 μl of biotin-LDL (Amersham) in 50 mM Hepes/0.15 M NaCl/0.1% bovine serum albumin (RSA)/0.05% NaN3 pH 7.4 containing 10 μl of CETP (1 mg/ml) and 3 μl of a solution of the substance to be tested (dissolved in 10% DMSO/1% RSA). 200 μl of the SPA-streptavidin bead solution (TRKQ 7005) are then added, incubated further with shaking for 1 h and then measured in a scintillation counter. Corresponding incubations with 10 μl of buffer, 10 μl of CETP at 4° C. and 10 μl of CETP at 37° C. serve as controls.
The activity transferred in the control batches with CETP at 37° C. is rated as 100% transfer. The substance concentration at which this transfer is reduced to half is specified as the IC50 value.

As to `CC(C)c1cc2c(c(-c3ccc(F)cc3)c1[C@H](O)c1ccc(C(C)(C)C)cc1)[C@@H](O)CC1(CCC1)O2` [Example 35, (4S)-6-[(R)-(4-tert-butylphenyl)(hydroxy)methyl]-5-(4-fluorophenyl)-7-isopropyl-3,4-dihydro-spiro[chromen-2,1′-cyclobutan]-4-ol], the concentration for half-maximal inhibition (IC50) at CETP [1] is 800 nM; on CETP [2], 400 nM.

Turning to `CC(C)c1cc2c(c(-c3ccc(F)cc3)c1Cc1ccc(OC(F)(F)F)cc1)[C@@H](O)CC1(CCC1)O2` [Example 41, (4S)-5-(4-Fluorophenyl)-7-isopropyl-6-[4-(trifluoromethoxy)benzyl]-3,4-dihydrospiro[chromen-2,1′-cyclobutan]-4-ol], the figures for the IC50 against CETP [1] and against CETP [2] were 19 nM and 15 nM, respectively.

On CETP [1], `O[C@H]1CC2(CCC2)Oc2cc(C3CCCC3)c(C(F)c3ccc(OC(F)(F)F)cc3)c(-c3ccc(F)cc3)c21` (stereo partly shown) [Example 54] displayed an IC50 of 39 nM. That is a double-digit nanomolar value.

On to `CC(C)(C)c1ccc([C@H](O)c2c(C3CCCC3)cc3c(c2-c2ccc(F)cc2)[C@@H](O)CC2(CCC2)O3)cc1` [Example 48], for which the IC50 worked out at 33 nM at CETP [1] and 14 nM against CETP [2].

`O=C(c1ccc(OC(F)(F)F)cc1)c1c(C2CCCC2)cc2c(c1-c1ccc(F)cc1)[C@@H](O)CC1(CCC1)O2` [Example 51]: the IC50 at CETP [1] came out at 42 nM; against CETP [2], 100 nM.

Turning to `CC(C)c1cc2c(c(-c3ccc(F)cc3)c1[C@H](O)c1ccc(C(F)(F)F)cc1)[C@@H](O)CC1(CC1)O2` [Example 56], on CETP [1], the IC50 is 263 nM.

On CETP [1], `CC(C)c1cc2c(c(-c3ccc(F)cc3)c1C(=O)c1ccc(OC(F)(F)F)cc1)[C@@H](O)CC(C)(C)O2` [Example 10, [(4S)-5-(4-Fluorophenyl)-4-hydroxy-7-isopropyl-2,2-dimethyl-3,4-dihydro-2H-chromen-6-yl][4-(trifluoromethoxy)phenyl]methanone] displayed an IC50 of 93 nM.

The compound `CC(C)c1cc2c(c(-c3ccc(F)cc3)c1C(F)c1ccc(OC(F)(F)F)cc1)[C@@H](O)CC1(CCC1)O2` (mixture of isomers) [Example 40, (4S)-5-(4-Fluorophenyl)-6-{fluoro[4-(trifluoromethoxy)phenyl]methyl}-7-isopropyl-3,4-dihydrospiro[chromen-2,1′-cyclobutan]-4-ol] returned an IC50 against CETP [1] of 50 nM. This IC50 is about 1.9-fold lower than that of the compound before.

On to `CC(C)c1cc2c(c(-c3ccc(F)cc3)c1[C@H](F)c1ccc(C(F)(F)F)cc1)[C@@H](O)CC1(CCC1)O2` [Example 31, (4S)-5-(4-fluorophenyl)-6-{(R)-fluoro[4-(trifluoromethyl)phenyl]methyl}-7-isopropyl-3,4-dihydro-spiro[chromen-2,1′-cyclobutan]-4-ol], for which the figures for the IC50 against CETP [1] and at CETP [2] were 53 nM and 20 nM, respectively.

In the case of `CC(C)(C)c1ccc([C@@H](O)c2c(C3CCCC3)cc3c(c2-c2ccc(F)cc2)[C@@H](O)CC2(CCC2)O3)cc1` [Example 49], on CETP [2], the IC50 is 400 nM.

Regarding `O[C@@H](c1ccc(OC(F)(F)F)cc1)c1c(C2CCCC2)cc2c(c1-c1ccc(F)cc1)[C@@H](O)CC1(CCC1)O2` [Example 52], the IC50 on CETP [1] was 198 nM; at CETP [2], 30 nM.

The compound `CC(C)c1cc2c(c(C3CCCC3)c1Cc1ccc(C(F)(F)F)cc1)[C@@H](O)CC(C)(C)O2` [Example 26, (4S)-5-Cyclopentyl-7-isopropyl-2,2-dimethyl-6-[4-(trifluoromethyl)benzyl]chroman-4-ol] gave an IC50 against CETP [1] of 48 nM.

Turning to `CC(C)c1cc2c(c(-c3ccc(F)cc3)c1[C@@H](O)c1ccc(C(F)(F)F)cc1)[C@@H](O)CC(C)(C)O2` [Example 5, (4S)-5-(4-Fluorophenyl)-6-{(S)-hydroxy[4-(trifluoromethyl)phenyl]methyl}-7-isopropyl-2,2-di-methylchroman-4-ol], the IC50 against CETP [1] came out at 35 nM; against CETP [2], 29 nM.

In the case of `CC(C)c1cc2c(c(-c3ccc(F)cc3)c1Cc1ccc(C(F)(F)F)cc1)[C@@H](O)CC(C)(C)O2` [Example 9, (4S)-5-(4-Fluorophenyl)-7-isopropyl-2,2-dimethyl-6-[4-(trifluoromethyl)benzyl]chroman-4-ol], the IC50 at CETP [1] came to 90 nM; against CETP [2] it was 33 nM.

As to `CC(C)c1cc2c(c(C3=CCCCC3)c1[C@@H](O)c1ccc(C(F)(F)F)cc1)[C@@H](O)CC(C)(C)O2` [Example 20, (4S)-5-Cyclohex-1-en-1-yl-6-{(S)-hydroxy[4-(trifluoromethyl)phenyl]methyl}-7-isopropyl-2,2-di-methylchroman-4-ol], the midpoint of inhibition against CETP [1], the IC50, lay at 49 nM.

For the compound `CC(C)(C)c1ccc(Cc2c(C3CCCC3)cc3c(c2-c2ccc(F)cc2)[C@@H](O)CC2(CCC2)O3)cc1` [Example 50], the values for the IC50 at CETP [1] and against CETP [2] were 30 nM and 15 nM, respectively.

As for `CC(C)c1cc2c(c(-c3ccc(F)cc3)c1Cc1ccc(C(C)(C)C)cc1)[C@@H](O)CC(C)(C)O2` [Example 17, (4S)-6-(4-tert-Butylbenzyl)-5-(4-fluorophenyl)-7-isopropyl-2,2-dimethylchroman-4-ol], the IC50 on CETP [1] was found to be 70 nM.

The compound `CC1(C)C[C@H](O)c2c(cc(C3CCCC3)c([C@@H](O)c3ccc(C(F)(F)F)cc3)c2-c2ccc(F)cc2)O1` [Example 1, (4S)-7-Cyclopentyl-5-(4-fluorophenyl)-6-{(S)-hydroxy[4-(trifluoromethyl)phenyl]methyl}-2,2-dimethylchroman-4-ol] gave a half-inhibitory concentration (IC50) at CETP [1] of 340 nM. This IC50 lies about 4.9-fold higher than the previous one.

In turn, `CC(C)c1cc2c(c(-c3ccc(F)cc3)c1[C@@H](O)c1ccc(C(C)(C)C)cc1)[C@@H](O)CC(C)(C)O2` [Example 15, (4S)-6-[(S)-(4-tert-Butylphenyl)(hydroxy)methyl]-5-(4-fluorophenyl)-7-isopropyl-2,2-dimethyl-chroman-4-ol] showed an IC50 against CETP [1] of 38 nM.

Turning to `CC(C)c1cc2c(c(-c3ccc(F)cc3)c1C(=O)c1ccc(C(C)(C)C)cc1)[C@@H](O)CC(C)(C)O2` [Example 14, (4-tert-Butylphenyl)[(4S)-5-(4-fluorophenyl)-4-hydroxy-7-isopropyl-2,2-dimethyl-3,4-dihydro-2H-chromen-6-yl]methanone], the IC50 against CETP [1] was determined as 176 nM.

Regarding `CC(C)c1cc2c(c(-c3ccc(F)cc3)c1[C@H](F)c1ccc(C(F)(F)F)cc1)[C@@H](O)CC(C)(C)O2` [Example 8, (4S)-5-(4-fluorophenyl)-6-{(R)-fluoro[4-(trifluoromethyl)phenyl]methyl}-7-isopropyl-2,2-dimethylchroman-4-ol], the IC50 at CETP [1] was determined as 373 nM. Against the preceding compound, the IC50 is about 2.1-fold higher.

In turn, `CC(C)c1cc2c(c(-c3ccccc3)c1C(=O)c1ccc(OC(F)(F)F)cc1)[C@@H](O)CC(C)(C)O2` [Example 18, [(4S)-4-Hydroxy-7-isopropyl-2,2-dimethyl-5-phenyl-3,4-dihydro-2H-chromen-6-yl][4-(trifluoromethoxy)phenyl]methanone] yielded an IC50 against CETP [1] of 792 nM.
